Experimental findings from patent US9452126B2, “Pharmaceutical/cosmetic compositions comprising hyaluronic acid and treatment of dermatological conditions therewith” (Galderma Research & Development, priority 2005, dated 2016) are described below.

Each structure is given as a SMILES string.

For this test, the target named is T1, hyaluronidase of bovine origin (Bos taurus, UniProt Q2YDK3).
T1 sequence (Q2YDK3 36-553): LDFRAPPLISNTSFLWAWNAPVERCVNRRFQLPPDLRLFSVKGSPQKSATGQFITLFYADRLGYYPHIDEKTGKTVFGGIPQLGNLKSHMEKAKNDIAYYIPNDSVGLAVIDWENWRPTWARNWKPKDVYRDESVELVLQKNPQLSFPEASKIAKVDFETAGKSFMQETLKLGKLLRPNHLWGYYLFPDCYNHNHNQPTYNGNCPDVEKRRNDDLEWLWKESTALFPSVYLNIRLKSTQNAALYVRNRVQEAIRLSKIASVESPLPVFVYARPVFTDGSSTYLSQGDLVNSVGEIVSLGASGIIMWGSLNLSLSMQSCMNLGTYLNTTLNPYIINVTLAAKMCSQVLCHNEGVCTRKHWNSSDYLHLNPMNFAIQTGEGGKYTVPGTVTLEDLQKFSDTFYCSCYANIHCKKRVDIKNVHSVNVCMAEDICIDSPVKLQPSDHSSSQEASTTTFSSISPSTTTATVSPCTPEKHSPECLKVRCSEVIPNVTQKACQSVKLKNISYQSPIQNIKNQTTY
The experiment in a line: Inhibitory effect on hyaluronidase activity of bovine origin (turbidimetry at 600 nm). The conditions noted are these: GLZ pre-incubated for 20 minutes at 37° C. with the enzyme. It counts as biochemical. As for the experimental part:
Determination of the IC50 of GLZ, with or without Pre-Incubation at 37° C.:
GLZ, at various concentrations, is or is not pre-incubated for 20 minutes at 37° C. in the presence of the enzyme. The enzyme reaction is triggered by adding the hyaluronic acid solution (time T0). After incubation for 20 minutes, the non-hydrolyzed hyaluronic acid is precipitated by adding acidic bovine albumin solution.
In order to verify that the pre-incubation step has no effect on the stability of the hyaluronidase, an aliquot of a solution of the enzyme is placed at 37° C. for 20 minutes. Another aliquot is conserved in an ice bath for 19 minutes, and is then incubated at 37° C. for 1 minute. A solution of hyaluronic acid is then added to each aliquot (T0). After incubation for 15, or 45 minutes, the non-hydrolyzed hyaluronic acid is precipitated by addition of acidic bovine albumin solution.
Measurement of the Hyaluronidase Activity of Bovine Origin:
After the precipitation step, the turbidimetry of the solutions is determined on a spectrophotometer at a wavelength of 600 nm. The optical density (OD) of these solutions is subtracted from the OD of a control solution of hyaluronic acid (of the same concentration) not hydrolyzed by the enzyme. This difference in OD, which is inversely proportional to the concentration of hyaluronic acid, is used to measure the activity of the hyaluronidase.

Broadly, the IC50 is the concentration that gives 50% inhibition. A low value points to higher potency. The compound `CC1(C)[C@@H](O[C@H]2O[C@H](C(=O)O)[C@@H](O)[C@H](O)[C@H]2O[C@@H]2O[C@H](C(=O)O)[C@@H](O)[C@H](O)[C@H]2O)CC[C@]2(C)[C@H]3C(=O)C=C4[C@@H]5C[C@@](C)(C(=O)O)CC[C@]5(C)CC[C@@]4(C)[C@]3(C)CC[C@@H]12` [GLZ, glycyrrhizin] registered an IC50 of 350 µM.
